Laboratory results published in US12251387B2, “Substituted quinoxalines and benzo[c][1,2,5]oxadiazoles as DNA-PK inhibitors” (Vertex Pharmaceuticals Incorporated, priority 2013, dated 2025).
pKi: −log10 of the molar value.

Molecular target: DNA-PK (Homo sapiens, UniProt P78527)
Assay: DNA-PK Inhibition Assay (standard radiometric kinase assay, 33P-ATP, peptide substrate)
Type: biochemical
Settings: radiometric assay, approximately 6 nM DNA-PK, 100 μM ATP, 45 min; fit to competitive tight-binding inhibition; read-out: Ki for the inhibition of DNA-PK
How it was run: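 Radiometric transfer of 33P from ATP (100 μM) to peptide substrate (0.8 mg/mL) by about 6 nM DNA-PK with 10 μg/mL sheared dsDNA, pH 7.5 HEPES/MgCl2, 45 min, phosphoric acid quench, filter capture and scintillation counting. Ki fitted to a competitive tight-binding inhibition model.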

| Structure (SMILES) | pKi |
| --- | --- |
| c1cc2ncnn2c(N[C@H]2CC[C@@H](Oc3cc(N4CCOCC4)cc4nccnc34)CC2)n1 [Compound 542] | > 7.00 |
| CN1CC[C@@H](Nc2ncnc(N[C@H]3CC[C@@H](Oc4cc(N5CCOCC5)cc5nccnc45)CC3)c2F)C1 [Compound 327] | > 7.00 |
| O=C1Cc2c(ncnc2N[C@H]2CC[C@@H](Oc3cc(N4CCOCC4)cc4nccnc34)CC2)N1 [Compound 502] | > 7.00 |
| FC(F)(F)c1ccnc(N[C@H]2CC[C@@H](Oc3cc(N4CCOCC4)cc4nccnc34)CC2)c1 [Compound 589] | > 7.00 |
| CN1CCC(c2ccnc(N[C@H]3CC[C@@H](Oc4cc(N5CCOCC5)cc5nccnc45)CC3)n2)CC1 [Compound 549] | > 7.00 |
| c1cc(C2CCNCC2)nc(N[C@H]2CC[C@@H](Oc3cc(N4CCOCC4)cc4nccnc34)CC2)n1 [Compound 551] | > 7.00 |
| CCOc1cnc(N[C@H]2CC[C@@H](Oc3cc(N4CCOCC4)cc4nccnc34)CC2)cn1 [Compound 334] | > 7.00 |
| Clc1nc(N[C@H]2CC[C@@H](Oc3cc(N4CCOCC4)cc4nccnc34)CC2)c2[nH]ccc2n1 [Compound 513] | > 7.00 |
| c1cc(CN2CCCCC2)nc(N[C@H]2CC[C@@H](Oc3cc(N4CCOCC4)cc4nccnc34)CC2)n1 [Compound 504] | > 7.00 |
| CCSc1nc(C)cc(N[C@H]2CC[C@@H](Oc3cc(N4CCOCC4)cc4nccnc34)CC2)n1 [Compound 635] | > 7.00 |
| CCOc1nccc(N[C@H]2CC[C@@H](Oc3cc(N4CCOCC4)cc4nccnc34)CC2)n1 [Compound 279] | > 7.00 |
| c1cnc2c(O[C@H]3C[C@@H](Nc4ncnc5ccoc45)C3)cc(N3CCOCC3)cc2n1 [Compound 356] | > 7.00 |
| Cc1nc2c(c(N[C@H]3CC[C@@H](Oc4cc(N5CCOCC5)cc5nccnc45)CC3)n1)COC2 [Compound 452] | > 7.00 |
| c1cnc2c(O[C@H]3CC[C@@H](Nc4ncnc5[nH]ccc45)CC3)cc(N3CCOCC3)cc2n1 [Compound 515] | > 7.00 |
| CNc1nc(N[C@H]2CC[C@@H](Oc3cc(N4CCOCC4)cc4nccnc34)CC2)cc(=O)[nH]1 [Compound 400] | > 7.00 |
| CN(C)c1nccc(N[C@H]2CC[C@@H](Oc3cc(N4CCOCC4)cc4nccnc34)CC2)n1 [Compound 453] | > 7.00 |
| CC(=O)N1CCC(NC(=O)N[C@H]2CC[C@@H](Oc3cc(N4CCOCC4)cc4nccnc34)CC2)CC1 [Compound 364] | > 7.00 |
| CN1CCN(CCc2cnc(N[C@H]3CC[C@@H](Oc4cc(N5CCOCC5)cc5nccnc45)CC3)nc2)CC1 [Compound 430] | > 7.00 |
| Cc1nccc(N[C@H]2CC[C@@H](Oc3cc(C4=CCOCC4)cc4nccnc34)CC2)n1 [Compound 352] | > 7.00 |
| c1nc(N[C@H]2CC[C@@H](Oc3cc(N4CCOCC4)cc4nccnc34)CC2)cc(-c2nnco2)n1 [Compound 566] | > 7.00 |
| CN1CCN(c2ncnc(N[C@H]3CC[C@@H](Oc4cc(N5CCOCC5)cc5nccnc45)CC3)c2F)CC1 [Compound 474] | > 7.00 |
| COc1ncnc(N[C@H]2CC[C@@H](Oc3cc(N4CCOCC4)cc4nccnc34)CC2)c1F [Compound 376] | > 7.00 |

| Structure (SMILES) | pKi |
| --- | --- |
| CN(C)c1ccnc(N[C@H]2CC[C@@H](Oc3cc(N4CCOCC4)cc4nccnc34)CC2)n1 [Compound 489] | > 7.00 |
| COc1cnc(N(C)C)nc1N[C@H]1CC[C@@H](Oc2cc(N3CCOCC3)cc3nccnc23)CC1 [Compound 386] | > 7.00 |
| CC(C)(C)OC(=O)N1CCC(c2ccnc(N[C@H]3CC[C@@H](Oc4cc(N5CCOCC5)cc5nccnc45)CC3)n2)CC1 [Compound 557] | > 7.00 |
| c1cnc2c(O[C@H]3CC[C@@H](Nc4ccc(OCCN5CCCCC5)cn4)CC3)cc(N3CCOCC3)cc2n1 [Compound 640] | > 7.00 |
| Fc1c(NC2CCOCC2)ncnc1N[C@H]1CC[C@@H](Oc2cc(N3CCOCC3)cc3nccnc23)CC1 [Compound 378] | > 7.00 |
| Fc1c(N[C@H]2CC[C@@H](Oc3cc(N4CCOCC4)cc4nccnc34)CC2)ncnc1C1CC1 [Compound 456] | > 7.00 |
| Clc1nc(N[C@H]2CC[C@@H](Oc3cc(N4CCOCC4)cc4nccnc34)CC2)nc2cc[nH]c12 [Compound 514] | > 7.00 |
| c1cnc2c(O[C@H]3CC[C@@H](Nc4ncc(CN5CCCCC5)cn4)CC3)cc(N3CCOCC3)cc2n1 [Compound 495] | > 7.00 |
| COc1nccnc1N[C@H]1CC[C@@H](Oc2cc(N3CCOCC3)cc3nccnc23)CC1 [Compound 312] | > 7.00 |
| c1cnc2c(O[C@H]3CC[C@@H](Nc4ccc(C5CCC5)nn4)CC3)cc(N3CCOCC3)cc2n1 [Compound 601] | > 7.00 |
| CNc1ncnc(N[C@H]2CC[C@@H](Oc3cc(N4CCOCC4)cc4nccnc34)CC2)c1F [Compound 469] | > 7.00 |
| c1cnc2c(O[C@H]3CC[C@@H](Nc4ncc5c(n4)OCC5)CC3)cc(N3CCOCC3)cc2n1 [Compound 621] | > 7.00 |
| CC(C)(C)OC(=O)N1CCn2cnc(N[C@H]3CC[C@@H](Oc4cc(N5CCOCC5)cc5nccnc45)CC3)c2C1 [Compound 296] | > 7.00 |
| Clc1cc(N[C@H]2CC[C@@H](Oc3cc(N4CCOCC4)cc4nccnc34)CC2)nc(C2CC2)n1 [Compound 605] | > 7.00 |
| CN(C)Cc1ccnc(N[C@H]2CC[C@@H](Oc3cc(N4CCOCC4)cc4nccnc34)CC2)n1 [Compound 483] | > 7.00 |
| c1nc2c(c(N[C@H]3CC[C@@H](Oc4cc(N5CCOCC5)cc5nccnc45)CC3)n1)CCC2 [Compound 487] | > 7.00 |
| c1cc(-c2nnco2)nc(N[C@H]2CC[C@@H](Oc3cc(N4CCOCC4)cc4nccnc34)CC2)n1 [Compound 461] | > 7.00 |
| CN1CCN(C(=O)N[C@H]2CC[C@@H](Oc3cc(N4CCOCC4)cc4nccnc34)CC2)CC1 [Compound 414] | > 7.00 |
| O=C1NCCc2nc(N[C@H]3CC[C@@H](Oc4cc(N5CCOCC5)cc5nccnc45)CC3)sc21 [Compound 322] | > 7.00 |
| CN1Cc2c(N[C@H]3CC[C@@H](Oc4cc(N5CCOCC5)cc5nccnc45)CC3)cccc2C1=O [Compound 340] | > 7.00 |
| Cc1nc(C)c(C)c(N[C@H]2CC[C@@H](Oc3cc(N4CCOCC4)cc4nccnc34)CC2)n1 [Compound 436] | > 7.00 |

More lines, now with the values ahead:

| pKi | Structure (SMILES) |
| --- | --- |
| > 7.00 | COc1cncc(N[C@H]2CC[C@@H](Oc3cc(N4CCOCC4)cc4nccnc34)CC2)c1 [Compound 446] |
| > 7.00 | Clc1cncnc1N[C@H]1CC[C@@H](Oc2cc(N3CCOCC3)cc3nccnc23)CC1 [Compound 409] |
| > 7.00 | OCc1ccnc(N[C@H]2CC[C@@H](Oc3cc(N4CCOCC4)cc4nccnc34)CC2)c1 [Compound 615] |
| > 7.00 | COc1ncccc1N[C@H]1CC[C@@H](Oc2cc(N3CCOCC3)cc3nccnc23)CC1 [Compound 445] |
| > 7.00 | FC(F)Oc1ccc(N[C@H]2CC[C@@H](Oc3cc(N4CCOCC4)cc4nccnc34)CC2)nc1 [Compound 572] |
| > 7.00 | Cc1cnc(N[C@H]2CC[C@@H](Oc3cc(N4CCOCC4)cc4nccnc34)CC2)nc1C [Compound 467] |
| > 7.00 | c1cc2ccoc2c(N[C@H]2CC[C@@H](Oc3cc(N4CCOCC4)cc4nccnc34)CC2)n1 [Compound 470] |
| > 7.00 | CCc1ccnc(N[C@H]2CC[C@@H](Oc3cc(N4CCOCC4)cc4nccnc34)CC2)n1 [Compound 633] |
| > 7.00 | O=c1cc(N[C@H]2CC[C@@H](Oc3cc(N4CCOCC4)cc4nccnc34)CC2)cc[nH]1 [Compound 325] |
| > 7.00 | Oc1nccc(N[C@H]2CC[C@@H](Oc3cc(N4CCOCC4)cc4nccnc34)CC2)n1 [Compound 280] |
| > 7.00 | COC(=O)c1ccc(N[C@H]2CC[C@@H](Oc3cc(N4CCOCC4)cc4nccnc34)CC2)cc1OC [Compound 394] |
| > 7.00 | COC(=O)c1cc(N[C@H]2CC[C@@H](Oc3cc(N4CCOCC4)cc4nccnc34)CC2)ncc1O [Compound 404] |
| > 7.00 | OCCc1cnc(N[C@H]2CC[C@@H](Oc3cc(N4CCOCC4)cc4nccnc34)CC2)nc1 [Compound 481] |
| > 7.00 | c1cnc2c(O[C@H]3CC[C@@H](Nc4ncc5occc5n4)CC3)cc(N3CCOCC3)cc2n1 [Compound 563] |
| > 7.00 | c1ccc(N[C@H]2CC[C@@H](Oc3cc(N4CCOCC4)cc4nccnc34)CC2)cc1 [Compound 648] |
| > 7.00 | c1cnc2c(O[C@H]3CC[C@@H](Nc4ncnc5cc[nH]c45)CC3)cc(N3CCOCC3)cc2n1 [Compound 517] |
| > 7.00 | Cc1ncc(F)c(N[C@H]2CC[C@@H](Oc3cc(N4CCOCC4)cc4nccnc34)CC2)n1 [Compound 494] |
| > 7.00 | Cn1ccc(N[C@H]2CC[C@@H](Oc3cc(N4CCOCC4)cc4nccnc34)CC2)n1 [Compound 649] |
| > 7.00 | OC(c1ccc(N[C@H]2CC[C@@H](Oc3cc(N4CCOCC4)cc4nccnc34)CC2)nc1)C(F)(F)F (some centres unmarked) [Compound 630] |
| > 7.00 | CC(C)(O)c1ccnc(N[C@H]2CC[C@@H](Oc3cc(N4CCOCC4)cc4nccnc34)CC2)c1 [Compound 573] |
| > 7.00 | CC(C)Nc1cnc(N[C@H]2CC[C@@H](Oc3cc(N4CCOCC4)cc4nccnc34)CC2)nc1 [Compound 152] |
| > 7.00 | O=C(O)c1cccc(N[C@H]2CC[C@@H](Oc3cc(N4CCOCC4)cc4nccnc34)CC2)n1 [Compound 419] |
| > 7.00 | COc1ccnc(N[C@H]2CC[C@@H](Oc3cc(N4CCOCC4)cc4nccnc34)CC2)c1 [Compound 627] |
| > 7.00 | FC(F)(F)c1cncc(N[C@H]2CC[C@@H](Oc3cc(N4CCOCC4)cc4nccnc34)CC2)c1 [Compound 429] |
| > 7.00 | c1cnc2c(O[C@H]3CC[C@@H](Nc4cncc5nccn45)CC3)cc(N3CCOCC3)cc2n1 [Compound 336] |
| > 7.00 | N#Cc1cncnc1N[C@H]1CC[C@@H](Oc2cc(N3CCOCC3)cc3nccnc23)CC1 [Compound 422] |
| > 7.00 | O=C(O)c1ccc(N[C@H]2CC[C@@H](Oc3cc(N4CCOCC4)cc4nccnc34)CC2)cn1 [Compound 393] |
| > 7.00 | Cc1ccncc1N[C@H]1CC[C@@H](Oc2cc(N3CCOCC3)cc3nccnc23)CC1 [Compound 443] |
